Where “and” joins values, the source holds several entries; their conditions need not be identical. Identical values can stand only once. Toxic doses and inconclusive results are not listed.
System: P388 leukemia ip, CD2F1 mice, survival T/C
Experiment: NCI In Vivo Anticancer Drug Screen. Data for tumor model P388 Leukemia (intraperitoneal) in CD2F1 (CDF1) mice
Conditions: endpoint: median survival time, higher = longer survival
Outline: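 Mice carrying the transplanted tumor received test compound or vehicle. Survival was recorded in each group, and the value is the treated-group measurement divided by that of the vehicle-treated control group.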

[1] = dose: 50.0 mg/kg/injection, schedule: Q04DX002 (ip), vehicle: saline with Tween-80
[2] = dose: 100.0 mg/kg/injection, schedule: Q04DX002 (ip), vehicle: saline with Tween-80
[3] = dose: 200.0 mg/kg/injection, schedule: Q04DX002 (ip), vehicle: saline with Tween-80

For `CO[C@H](C(=O)[C@@H](O)[C@@H](C)O)[C@@H]1Cc2cc3cc(OC4CC(OC5CC(O)C(O)C(C)O5)C(O)C(C)O4)c(C)c(O)c3c(O)c2C(=O)[C@H]1OC1CC(OC2CC(OC3CC(C)(O)C(O)C(C)O3)C(O)C(C)O2)C(O)C(C)O1` (stereo partly drawn), the T/C (dose: 0.01 mg/kg/injection, schedule: Q01DX009 (ip), vehicle: saline) was 100 % of control, the T/C (dose: 0.02 mg/kg/injection, schedule: Q01DX009 (sc), vehicle: saline) was 100 % of control and the T/C (dose: 0.03 mg/kg/injection, schedule: Q01DX001 (ip), vehicle: saline) was 100 % of control. The T/C (dose: 0.03 mg/kg/injection, schedule: Q01DX001 (sc), vehicle: saline) was 104 % of control, the T/C (dose: 0.03 mg/kg/injection, schedule: Q01DX005 (iv), vehicle: saline) was 100 % of control and the T/C (dose: 0.03 mg/kg/injection, schedule: Q01DX009 (ip), vehicle: saline) was 100 % of control. The T/C (dose: 0.03 mg/kg/injection, schedule: Q01DX009 (sc), vehicle: saline) was 104 % of control, the T/C (dose: 0.05 mg/kg/injection, schedule: Q01DX009 (ip), vehicle: water) was 109 % of control and 110 % of control and the T/C (dose: 0.05 mg/kg/injection, schedule: Q01DX010 (ip), vehicle: water) was 100 % of control. For the same compound, the T/C (dose: 0.06 mg/kg/injection, schedule: Q01DX001 (ip), vehicle: saline) was 100 % of control, the T/C (dose: 0.06 mg/kg/injection, schedule: Q01DX001 (sc), vehicle: saline) was 104 % of control and the T/C (dose: 0.06 mg/kg/injection, schedule: Q01DX005 (iv), vehicle: saline) was 100 % of control. For the same compound, the T/C (dose: 0.06 mg/kg/injection, schedule: Q01DX009 (ip), vehicle: saline) was 100 % of control, the T/C (dose: 0.06 mg/kg/injection, schedule: Q01DX009 (sc), vehicle: saline) was 100 % of control and the T/C (dose: 0.1 mg/kg/injection, schedule: Q01DX009 (ip), vehicle: water) was 115 % of control. The T/C (dose: 0.1 mg/kg/injection, schedule: Q01DX015 (ip), vehicle: water) was 100 % of control and 109 % of control, the T/C (dose: 0.12 mg/kg/injection, schedule: Q01DX009 (ip), vehicle: clinical formulation) was 103 % of control and 104 % of control and 108 % of control and the T/C (dose: 0.12 mg/kg/injection, schedule: Q01DX009 (ip), vehicle: water) was 111 % of control and 114 % of control. For the same compound, the T/C (dose: 0.13 mg/kg/injection, schedule: Q01DX001 (ip), vehicle: saline) was 100 % of control, the T/C (dose: 0.13 mg/kg/injection, schedule: Q01DX001 (sc), vehicle: saline) was 100 % of control and the T/C (dose: 0.13 mg/kg/injection, schedule: Q01DX005 (ip), vehicle: water) was 106 % of control and 107 % of control. The T/C (dose: 0.13 mg/kg/injection, schedule: Q01DX005 (iv), vehicle: saline) was 100 % of control, the T/C (dose: 0.13 mg/kg/injection, schedule: Q01DX009 (ip), vehicle: water) was 100 % of control and the T/C (dose: 0.13 mg/kg/injection, schedule: Q01DX009 (sc), vehicle: saline) was 100 % of control. The T/C (dose: 0.16 mg/kg/injection, schedule: Q01DX009 (ip), vehicle: saline) was 99 % of control, the T/C (dose: 0.2 mg/kg/injection, schedule: Q01DX009 (ip), vehicle: water) was 118 % of control and 120 % of control and the T/C (dose: 0.2 mg/kg/injection, schedule: Q01DX015 (ip), vehicle: water) was 109 % of control. For the same compound, the T/C (dose: 0.22 mg/kg/injection, schedule: Q01DX005 (ip), vehicle: clinical formulation) was 108 % of control, the T/C (dose: 0.25 mg/kg/injection, schedule: Q01DX001 (ip), vehicle: saline) was 100 % of control (2×) and 118 % of control and the T/C (dose: 0.25 mg/kg/injection, schedule: Q01DX001 (sc), vehicle: saline) was 100 % of control. The T/C (dose: 0.25 mg/kg/injection, schedule: Q01DX005 (ip), vehicle: water) was 108 % of control and 116 % of control, the T/C (dose: 0.25 mg/kg/injection, schedule: Q01DX005 (iv), vehicle: saline) was 100 % of control and the T/C (dose: 0.25 mg/kg/injection, schedule: Q01DX009 (ip), vehicle: clinical formulation) was 105 % of control and 109 % of control. For the same compound, the T/C (dose: 0.25 mg/kg/injection, schedule: Q01DX009 (oral), vehicle: saline) was 109 % of control, the T/C (dose: 0.25 mg/kg/injection, schedule: Q01DX009 (sc), vehicle: saline) was 100 % of control and the T/C (dose: 0.25 mg/kg/injection, schedule: Q03HX008 (ip), vehicle: saline) was 108 % of control. For the same compound, the T/C (dose: 0.25 mg/kg/injection, schedule: Q04DX024 (ip), vehicle: saline) was 116 % of control, the T/C (dose: 0.25 mg/kg/injection, schedule: Q08DX002 (ip), vehicle: saline) was 118 % of control and the T/C (dose: 0.27 mg/kg/injection, schedule: Q01DX009 (ip), vehicle: saline) was 99 % of control. For the same compound, the T/C (dose: 0.3 mg/kg/injection, schedule: Q01DX015 (ip), vehicle: water) was 104 % of control and 118 % of control, the T/C (dose: 0.36 mg/kg/injection, schedule: Q01DX005 (ip), vehicle: clinical formulation) was 105 % of control and the T/C (dose: 0.4 mg/kg/injection, schedule: Q01DX015 (ip), vehicle: water) was 109 % of control. The T/C (dose: 0.45 mg/kg/injection, schedule: Q01DX009 (ip), vehicle: saline) was 102 % of control, the T/C (dose: 0.5 mg/kg/injection, schedule: Q01DX001 (ip), vehicle: saline) was 100 % of control (2×) and 113 % of control and the T/C (dose: 0.5 mg/kg/injection, schedule: Q01DX001 (oral), vehicle: saline) was 100 % of control. The T/C (dose: 0.5 mg/kg/injection, schedule: Q01DX001 (sc), vehicle: saline) was 100 % of control, the T/C (dose: 0.5 mg/kg/injection, schedule: Q01DX005 (ip), vehicle: water) was 111 % of control and 114 % of control and the T/C (dose: 0.5 mg/kg/injection, schedule: Q01DX005 (iv), vehicle: saline) was 100 % of control. For the same compound, the T/C (dose: 0.5 mg/kg/injection, schedule: Q01DX009 (ip), vehicle: clinical formulation) was 116 % of control, the T/C (dose: 0.5 mg/kg/injection, schedule: Q01DX009 (ip), vehicle: saline) was 113 % of control and the T/C (dose: 0.5 mg/kg/injection, schedule: Q01DX009 (ip), vehicle: water) was 150 % of control. For the same compound, the T/C (dose: 0.5 mg/kg/injection, schedule: Q01DX009 (oral), vehicle: saline) was 109 % of control, the T/C (dose: 0.5 mg/kg/injection, schedule: Q01DX009 (sc), vehicle: saline) was 100 % of control and the T/C (dose: 0.5 mg/kg/injection, schedule: Q01DX015 (ip), vehicle: water) was 118 % of control. The T/C (dose: 0.5 mg/kg/injection, schedule: Q03HX008 (ip), vehicle: saline) was 108 % of control, the T/C (dose: 0.6 mg/kg/injection, schedule: Q01DX005 (ip), vehicle: clinical formulation) was 113 % of control and the T/C (dose: 0.65 mg/kg/injection, schedule: Q01DX009 (ip), vehicle: water) was 150 % of control. The T/C (dose: 0.75 mg/kg/injection, schedule: Q01DX009 (ip), vehicle: saline) was 104 % of control, the T/C (dose: 1.0 mg/kg/injection, schedule: Q01DX001 (ip), vehicle: saline) was 118 % of control and the T/C (dose: 1.0 mg/kg/injection, schedule: Q01DX001 (oral), vehicle: saline) was 104 % of control. For the same compound, the T/C (dose: 1.0 mg/kg/injection, schedule: Q01DX001 (sc), vehicle: saline) was 104 % of control, the T/C (dose: 1.0 mg/kg/injection, schedule: Q01DX005 (ip), vehicle: water) was 118 % of control and the T/C (dose: 1.0 mg/kg/injection, schedule: Q01DX009 (ip), vehicle: clinical formulation) was 104 % of control. The T/C (dose: 1.0 mg/kg/injection, schedule: Q01DX009 (oral), vehicle: saline) was 109 % of control, the T/C (dose: 1.0 mg/kg/injection, schedule: Q03HX008 (ip), vehicle: saline) was 116 % of control and the T/C (dose: 1.0 mg/kg/injection, schedule: Q08DX002 (ip), vehicle: saline) was 109 % of control. For the same compound, the T/C (dose: 2.0 mg/kg/injection, schedule: Q01DX001 (oral), vehicle: saline) was 100 % of control, the T/C (dose: 2.0 mg/kg/injection, schedule: Q01DX009 (ip), vehicle: clinical formulation) was 116 % of control and the T/C (dose: 2.0 mg/kg/injection, schedule: Q01DX009 (oral), vehicle: saline) was 109 % of control. For the same compound, the T/C (dose: 4.0 mg/kg/injection, schedule: Q01DX001 (oral), vehicle: saline) was 100 % of control.

`COc1ccc(/C=N\N=C(/[O-])c2ccccc2O)cc1.COc1ccc(/C=N\N=C(/[O-])c2ccccc2O)cc1.[Mn+2].[OH3+].[OH3+]` was tested, and the T/C [1] was 107 % of control, the T/C [2] was 108 % of control and the T/C [3] was 114 % of control.

`O=C(O)Cc1cn2cccnc2n1` was tested, and the T/C [1] was 115 % of control, the T/C [2] was 99 % of control and the T/C [3] was 96 % of control.

In the case of `C/C(=N\N=C(N)N)c1ccc2c(c1)Cc1ccccc1-2`, the T/C (dose: 25.0 mg/kg/injection, schedule: Q04DX002 (ip), vehicle: saline with Tween-80) is reported as 101 % of control and the T/C [1] is reported as 103 % of control.

`CCCCCCCCCCCCCS` was tested, and the T/C (dose: 50.0 mg/kg/injection, schedule: Q01DX009 (ip), vehicle: saline with Tween-80) was 118 % of control and the T/C (dose: 132.0 mg/kg/injection, schedule: Q04DX003 (ip), vehicle: saline with Tween-80) was 104 % of control.

For `O=C1CCC(Cc2ccc(Br)cc2)C(=O)N1` (stereo not drawn), the T/C (dose: 60.0 mg/kg/injection, schedule: Q01DX005 (ip), vehicle: saline with Tween-80) was 104 % of control, the T/C (dose: 120.0 mg/kg/injection, schedule: Q01DX005 (ip), vehicle: saline with Tween-80) was 98 % of control and the T/C (dose: 240.0 mg/kg/injection, schedule: Q01DX005 (ip), vehicle: saline with Tween-80) was 98 % of control.
